Earlier results, collected in patent publication US8476466B2 (priority 2008, dated 2013).

Tested on: mice
Details: mouse, in vivo

Row | Compound | 50% lethal dose (LD50, in mice) [mg/kg]
1 | C[As+](C)(C)CC(=O)[O-] [arsenobetaine] | 10000
2 | arsenic acid | 14 to 18
